Measurements from patent publication US20090123925A1, “CANCER THERAPY PROGNOSIS AND TARGET” (priority 2005, published 2009).
Read-outs that look alike come from different tables or passages of the source. Where a SMILES comes first, the peptide text is derived from it. The star is where a group is joined. Cbz = O=C(OCc1ccccc1)*; CH2F = FC*

Columns and labels:
Assay type in all cases: cell-based, human
[1] = system: cisplatin-resistant A549 cells (A549cis7.5, A549cis10); conditions: for Fold change of IC50 in resistant line vs. A549 parental line: A549cis7.5 (exposed up to 7.5 μM cisplatin), MTT, 72 hours
Description: (§1) The A549 cisplatin-, carboplatin- and oxaliplatin-cells were derived from the A549WT cell lines, by maintaining the cells in increasing concentrations of the relevant drug. […] This generated cisplatin-(A549cis1, A549cis2.5, A549cis5, A549cis7.5 and A549cis10), carboplatin-(A549car1, A549car2.5, A549car5, A549car10, A549car15 and A549car17.5) and oxaliplatin-(A549oxa2.5, A549oxa3, A549ox3.5, A549ox5 and A549oxa7.5) resistant A549 cell lines. The cells were exposed to each drug concentration for at least a 4-week period and allowed to recover in drug-free medium for a minimum of 2 weeks, before culture in a higher concentration of drug.
(§2) Cytotoxicity of each platinum drug in each cell line was determined by MTT (3-(4,5-dimethylthiazole-2-yl)-2,5-diphenyl tetrazolium bromide, Sigma) assay. Cells were seeded onto 96-well plates at a density of 2-3×10^3 cells per well and cultured for 24 hours. Then cells were incubated with relevant concentrations of carboplatin, cisplatin or oxaliplatin for 72 hours. After treatment, 30 μl of MTT (5 mg/ml) in PBS was incubated with cells in a 96-well plate for 4 h at 37° C. Subsequently, the medium containing MTT was removed, and 200 μl of DMSO was added to each well and shaken for 15 minutes. Spectrophotometric absorbance of each well was measured at 560 nm and 630 nm on a microplate reader (Bio-Rad, model 3550). GraphPad Prism 2.01 was used to calculate the IC50 of each platinum drug in different cell lines.
(§3) CA-074 Methyl ester (Sigma) was used to inhibit cathepsin B and caspase inhibitor I: (Z-VAD (OMe)-FMK, Calbiochem, UK) to inhibit caspases. Cathepsin L and K selective inhibitors (Cathepsin L inhibitor IV: Z-FF-FMK and Cathepsin K inhibitor I: 1,3-Bis (N-carbobenzoyloxy-L-leucyl) amino acetone, respectively (Calbiochem, UK)) and non-selective broad range cathepsin inhibitor (E-64d; (2S, 3S)-trans-epoxysuccinyl-L-leucylamido-3-methylbutane ethyl ester (Sigma, UK) were used to inhibit cysteine proteases.

[2] = system: oxaliplatin-resistant A549 cells (A549ox3, A549ox7.5); conditions: MTT, 72 hours
Description: as §1, §2, §3

[3] = system: carboplatin-resistant A549 cells (A549car15, A549car17.5); conditions: for Fold change of IC50 in resistant line vs. A549 parental line: A549car15 (exposed up to 15 μM carboplatin), MTT, 72 hours
Description: as §1, §2, §3

[4] = system: A549 wt cells; conditions: wild-type or resistant A549 NSCLC cells; data not shown
Description: The human NSCLC cell line A549 [from ATCC; CCL-185] was maintained in F12-K and RPMI 1640 (supplemented with 10% foetal bovine serum (FBS), 100 U/ml penicillin, and 100 μg/ml streptomycin at 37° C., 5% CO2) in an incubator.
as §2
CA-074 Methyl ester (Sigma) was used to inhibit cathepsin B and caspase inhibitor I: (Z-VAD (OMe)-FMK, Calbiochem, UK) to inhibit caspases. […]

[5] = A549ox7.5 (exposed up to 7.5 μM oxaliplatin)

SMILES | Fold change of IC50 in resistant line vs. A549 parental line [1] [fold] | Fold change of IC50 in resistant line vs. A549 parental line ([2]; A549 cells exposed up to 3 μM oxaliplatin) [fold] | Fold change of IC50 in resistant line vs. A549 parental line [2, 5] [fold] | Fold change of IC50 in resistant line vs. A549 parental line [3] [fold] | Level of resistance at higher drug concentration ([1]; A549 cells exposed to 10 μM cisplatin, compared with 7.5 μM) | Level of resistance at higher drug concentration ([3]; A549 cells exposed to 17.5 μM carboplatin, compared with 15 μM) | Effect of caspase inhibition on sensitivity to platinum drugs [4]
O=C1[O][Pt]2([NH][C@@H]3CCCC[C@H]3[NH]2)[O]C1=O [oxaliplatin] | 0.54 | 3 | 5.3 | 0.47 |  |  | 
N.N.[Cl][Pt][Cl] [cisplatin] |  |  | 1.8 | 3.02 | remained unchanged |  | 
N.N.O=C([O-])C1(C(=O)[O-])CCC1.[Pt+2] [carboplatin] | 3.4 |  | 1.5 |  |  | remained unchanged | 
COC(=O)C[C@H](NC(=O)[C@H](C)NC(=O)[C@@H](NC(=O)OCc1ccccc1)C(C)C)C(=O)CF [caspase inhibitor I, Z-VAD (OMe)-FMK] (Cbz-Val-Ala-Asp(OMe)-CH2F) |  |  |  |  |  |  | did not alter
